Results taken from patent publication US10854312B2, “Selective peptide antagonists” (BIONIZ, LLC, priority 2013, dated 2020).
“Also recorded” adds a separate entry of the source. No end group written: not given here.

What was measured:
Assay type in all cases: cell-based
IL-2, -15 and -9 = assay: Inhibition of IL-2, -15 and -9 in human NK92 cell line and ex vivo human T cells
Description: Human peripheral blood mononuclear cells were purified by the Ficoll-paque gradient centrifugation (GE-Healthcare) and stimulated by PHA (5 μg ml^−1, Sigma) for 48 h, then expanded with IL-2 (0.5 nM, Peprotech) for 48h, and then depleted of non-T cells by the Pan-T cell negative enrichment Ab cocktails (Miltenyi). The purified T cells were then fasted of IL-2 overnight prior to the proliferation assay by the tetrazolium dye method. Four hundred thousand cells (in 200 μl culture) were incubated with the cytokines and BNZ132-1 at the indicated concentrations for 24 h, and 20 μl WST1 reagent (Clontech) was added to each well. After 12 h incubation, OD450 was measured. The assay was performed in triplicate. […] NK 92 cells were cultured in human IL-2. Cells were washed to withdraw IL-2 for overnight and two hundred thousand cells (in 200 μl volume) were incubated with the indicated concentrations of the cytokine and BNZ132-1 for 24 h before 20 μl WST-1 reagent (Clontech) was added to each well to measure proliferative response. Absorbance at 450 nm was read at 6 h after the addition of the WST-1 dye. The assay was performed in triplicate. The assay was performed in triplicate and the figure represents a typical result out of 5 different HAM-TSP patients.
Next, the biochemical aspects of the BNZ132-1 inhibition of target cytokines were investigated. […]

human IL-2 signal = assay: Western blot of phosphorylation downstream of IL-2 in human PBMC / peripheral T cells
Description: FIG. 9C presents IL-2 signal in human PBMC was blocked by BNZ132-1. Human PBMCs were prepared (Ficoll-paque), activated (by PHA) expanded (by IL-2), and purified by magnetic negative selection as described in the methodology section. After 24 h of IL-2 depletion, the PBMCs were stimulated by 1 nM IL-2 in the presence or absence of BNZ132-1 (0.5 or 0.1 μM) for 20 min before the cellular protein extraction. Phosphorylation of individual proteins was visualized by phosphor-specific antibodies (Cell Signaling), followed by ECL. Lanes: 1. no stimulation, 2. IL-2 stimulation, 3. IL-2+BNZ132-1 (high dose), 4. IL-2+BNZ132-1 (low dose). In all blots, anti-Vinculin antibody (Sigma) was used to validate nearly-equal protein loading.

mouse IL-4 signal = assay: Western blot of phosphorylation downstream of IL-4 in PT-18 cells; details: 1 nM mouse IL-4, excess dose of BNZ132-1, 15 min
Description: (§1) PT-18 cells32 were fasted of IL-3 for 12 h prior to stimulation. Cells were stimulated with 1 nM mouse IL-4 or mouse IL-9 in the presence or absence of excess dose of BNZ132-1 ([…]) for 15 min and then cellular proteins were extracted. Phosphorylation of the indicated proteins was detected using phosphor-specific antibodies (Cell signaling), followed by ECL. IL-4 is the only γc-cytokine that induces the phosphorylation of STAT6. Note that only IL-4, but not IL-9, induced the tyrosine-phosphorylation of STAT6. […] Lanes: 1. no stimulation, 2. IL-4, 3. IL-4+BNZ132-1, 4. IL-9, 5. IL-9+BNZ132-1

mouse stem cell factor = mouse stem cell factor (Mus musculus, UniProt P20826); assay: PT-18β proliferation assay (3H-thymidine), non-γc cytokine SCF; details: 1 nM mouse stem cell factor, 15 μM BNZ132-1
mouse stem cell factor, sequence (P20826 26-273): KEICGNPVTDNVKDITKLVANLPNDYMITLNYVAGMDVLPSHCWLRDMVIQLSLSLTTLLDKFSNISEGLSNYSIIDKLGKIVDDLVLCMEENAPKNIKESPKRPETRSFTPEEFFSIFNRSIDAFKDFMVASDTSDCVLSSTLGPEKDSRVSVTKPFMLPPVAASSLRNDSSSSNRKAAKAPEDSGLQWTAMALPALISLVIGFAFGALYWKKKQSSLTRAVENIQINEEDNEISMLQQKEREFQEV

mouse IL-9 signal = assay: Western blot of phosphorylation downstream of IL-9 in PT-18 cells; details: 1 nM mouse IL-9, excess dose of BNZ132-1, 15 min
Description: as §1

IC50 (IL-2, -15 and -9; human NK92 cell line and ex vivo human T cells, read-out: concentration at which IL-2, -15 and -9 are inhibited): 0.05 to 0.15 µM
Sequence: IKEFLQRFIHIVQSIINTS [BNZ132-1]
Ki (IL-2, -15 and -9; approximate, from the inhibitory concentrations (Cheng-Prusoff), read-out: binding affinity of BNZ132-1 to target cells): 0.01 to 0.06 µM | inhibition of IL-2 signal (phosphorylation) (human IL-2 signal; human PBMC/peripheral T cells, 1 nM IL-2, BNZ132-1 0.5 or 0.1 μM, 20 min): comprehensively inhibited; also recorded: blocked | differential inhibition of individual signaling pathways at suboptimal dose (human IL-2 signal; low dose BNZ132-1 (0.1 μM), IL-2, human peripheral T cells): Akt and p38 are more sensitive than Jak3 and STAT5 | inhibition of IL-4 signal transduction (phosphorylation, STAT6) (mouse IL-4 signal): does not interfere; also recorded: not inhibited | inhibition of SCF-induced proliferation of PT-18β cells (mouse stem cell factor): did not inhibit; also recorded: no inhibition; also recorded: no inhibition of non-γc cytokines | inhibition of IL-9 signal (phosphorylation, STAT5) (mouse IL-9 signal): comprehensively inhibited
